The record followed here is US9771369B2, “Compounds and methods for kinase modulation, and indications therefor” (Plexxikon Inc., priority 2014, dated 2017).

What is called IC50 is the point on the concentration scale where inhibition reaches its midpoint.

This experiment concerns the target c-Kit kinase (Homo sapiens (Human), UniProt P10721). Description: c-Kit biochemical assay (AlphaScreen kinase activity). Summed up: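 IC50 values come from 8-point, 1:3 compound titrations measuring inhibition of peptide phosphorylation by c-Kit (commercial or His-tagged E. coli-expressed) over 1 h at room temperature, read by AlphaScreen PY30/streptavidin beads. Low-ATP version: 10 μM ATP, 100 nM biotin-(E4Y)3; high-ATP version: 100 μM ATP, 30 nM biotin-(E4Y)10.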

The structures appear in SMILES notation.

Chain of c-Kit kinase (P10721 26-976): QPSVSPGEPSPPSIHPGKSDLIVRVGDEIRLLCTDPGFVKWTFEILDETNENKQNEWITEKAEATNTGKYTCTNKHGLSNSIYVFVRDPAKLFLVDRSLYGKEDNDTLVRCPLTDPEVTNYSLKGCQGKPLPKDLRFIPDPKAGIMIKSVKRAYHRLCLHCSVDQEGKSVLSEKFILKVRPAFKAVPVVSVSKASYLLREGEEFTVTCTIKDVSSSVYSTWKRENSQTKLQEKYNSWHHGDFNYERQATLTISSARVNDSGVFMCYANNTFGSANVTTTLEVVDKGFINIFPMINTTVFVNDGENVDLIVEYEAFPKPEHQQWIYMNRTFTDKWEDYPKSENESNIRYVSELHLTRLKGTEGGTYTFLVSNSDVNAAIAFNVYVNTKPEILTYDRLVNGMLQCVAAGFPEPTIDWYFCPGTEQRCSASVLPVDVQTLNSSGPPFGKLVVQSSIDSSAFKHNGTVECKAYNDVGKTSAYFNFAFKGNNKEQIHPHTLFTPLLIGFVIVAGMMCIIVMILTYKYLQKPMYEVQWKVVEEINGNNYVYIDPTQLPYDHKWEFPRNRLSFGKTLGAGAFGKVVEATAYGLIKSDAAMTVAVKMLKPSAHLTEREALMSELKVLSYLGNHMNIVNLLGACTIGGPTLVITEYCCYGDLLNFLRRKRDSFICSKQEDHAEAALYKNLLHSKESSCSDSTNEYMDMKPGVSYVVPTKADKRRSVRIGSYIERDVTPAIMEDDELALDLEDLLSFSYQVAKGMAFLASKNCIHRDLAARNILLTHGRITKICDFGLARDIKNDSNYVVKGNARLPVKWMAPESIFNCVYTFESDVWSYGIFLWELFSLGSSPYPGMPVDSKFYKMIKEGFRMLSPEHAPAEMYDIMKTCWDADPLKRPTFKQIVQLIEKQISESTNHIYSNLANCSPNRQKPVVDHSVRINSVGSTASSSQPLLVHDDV

The compound `CCOc1ccc(-c2[nH]c(C3(C)CCN(c4ncnc5[nH]c(-c6ccc(N7CCOCC7)nc6)cc45)CC3)nc2C)cc1C` [P-3249, 4-[5-[4-[4-[5-(4-ethoxy-3-methyl-phenyl)-4-methyl-1H-imidazol-2-yl]-4-methyl-1-piperidyl]-7H-pyrrolo[2,3-d]pyrimidin-6-yl]-2-pyridyl]morpholine] returned a half-inhibitory concentration (IC50) of 0.0001 to 1 µM.
